Test results: patent US20240307370A1, “SIGMA RECEPTOR LIGANDS FOR TREATING SARS-COV-2 INFECTION” (University of Florida Research Foundation, Incorporated, priority 2021, published 2024)
Converted amounts (≈) assume the structure as drawn. Read-outs that look alike come from different tables or passages of the source.

Assays:
SARS-CoV-2 [1] = assay: K18-hACE2 mouse SARS-CoV-2 infection model; type: in vivo, mice
[2] = Toxicity of ligand alone (LDH release, CC50); conditions: African green monkey
SARS-CoV-2 [3] = type: cell-based; conditions: Vero E6, MOI 0.2, 72 h
SARS-CoV-2 [4] = assay: Plaque reduction assay in Vero E6 monolayers; type: cell-based; conditions: Vero E6, plaques counted at 72 h; for EC50: Severe acute respiratory syndrome coronavirus 2, Vero C1008, 72 h
SARS-CoV-2 [5] = type: cell-based; conditions: H23-hACE2, MOI 0.01, 48 hpi, vs mock treated
SARS-CoV-2 [6] = type: cell-based
SARS-CoV-2 [7] = assay: microbe, parasite or virus in culture; conditions: Severe acute respiratory syndrome coronavirus 2, Vero C1008, 72 h
SARS-CoV-2 [8] = conditions: Vero E6, MOI 0.2, 72 h
H23 cells = assay: Phospholipidosis assay; conditions: 48 h treatment, 100 μg/ml
SARS-CoV-2 [9] = conditions: cited from earlier work
SARS-CoV-2 [10] = conditions: cited from earlier work; remark: listed apart in the source
Vero E6 cells = assay: Toxicity of ligand alone (LDH release, CC50); conditions: drug alone, Vero E6, 72 h, LDH release
sigma-1 over sigma-2 = conditions: cited from earlier work
SARS-CoV-2 [11] = conditions: previously published study; cited from earlier work
[12] = 45 mg/kg daily intraperitoneal from 24 hours after infection
[13] = read-out: Cytotoxicity EC50 (inhibition of SARS-CoV-2-induced cytotoxicity)
[14] = read-out: EC50 for inhibition of SARS-CoV-2 induced cytotoxicity

SMILES: CC(CCCn1c(=O)sc2cc(F)ccc21)N1CCN(C2CCCCC2)CC1 (centres unmarked) [AZ66]
- weight loss associated with COVID-19 (SARS-CoV-2 [1]; [12]): delayed weight loss
- CC50 at 72 h [2]: 128 µg/mL (≈ 315 µM)
- reduction of cytopathic effects (CPE) by microscopy (SARS-CoV-2 [3]): greatly reduce cytopathic effects
- EC50 (SARS-CoV-2 [4]; read-out: EC50 by plaque reduction assay): 15.9 µM
- EC50 (SARS-CoV-2 [4]; read-out: Plaque reduction EC50): 6.46 µg/mL
- Plaque reduction EC50 (SARS-CoV-2 [4]): 6.47 µg/mL
- decrease of SARS-CoV-2 concentration (TCID50) (SARS-CoV-2 [5]; 50 μg/ml): ~3 log
- viral replication reduced by (qPCR) (SARS-CoV-2 [6]): 99.9%
- viral replication reduction (qPCR) (SARS-CoV-2 [6]): 3 log
- EC50 (SARS-CoV-2 [7]; [13]): 45.1 µg/mL
- EC50 (SARS-CoV-2 [7]; [14]): 86.4 µM

SMILES: O=c1sc2cc(CCCF)ccc2n1CCN1CCCCCC1 [CM304]
- inhibition of SARS-CoV-2-induced cytotoxicity (SARS-CoV-2 [8]): insignificant viral inhibition
- reduction of cytopathic effects (CPE) by microscopy (SARS-CoV-2 [3]): unable to visibly reduce CPE
- phospholipidosis level (H23 cells): highest mean levels of phospholipidosis
- more virus detected (RNA levels) compared to the 48 hours DMSO control (SARS-CoV-2 [6]): 61.2%

SMILES: COc1cc2c(cc1OC)CN(CCCCn1c(=O)n(C)c3ccccc31)CC2 [CM398, 1-(4-(6,7-Dimethoxy-3,4-dihydroisoquinolin-2(1H)-yl)butyl)-3-methyl-1H-benzo[d]imidazol-2(3H)-one]
- weight loss associated with COVID-19 (SARS-CoV-2 [1]; [12]): delayed weight loss
- median survival (SARS-CoV-2 [1]; 45 mg/kg daily intraperitoneal from 24 hours after infection, saline 5.5 days, not statistically significant): 6.5 days
- survival and recovery (SARS-CoV-2 [1]; 45 mg/kg daily intraperitoneal, group of 5 mice): One mouse in the CM398 group survived and regained all weight lost
- CC50 at 72 h [2]: 111 µg/mL (≈ 280 µM)
- reduction of cytopathic effects (CPE) by microscopy (SARS-CoV-2 [3]): greatly reduce cytopathic effects
- decrease of SARS-CoV-2 concentration (TCID50) (SARS-CoV-2 [5]; 100 μg/ml): ~1 log
- viral replication reduced by (qPCR) (SARS-CoV-2 [6]): 97.5%
- EC50 (SARS-CoV-2 [7]; [13]): 51.3 µg/mL
- EC50 (SARS-CoV-2 [7]; [14]): 130 µM

SMILES: COc1cccc2c1CCCC2CCCN1CCN(C2CCCCC2)CC1 (centres unmarked) [PB28]
- in vivo efficacy (SARS-CoV-2 [9]): ineffective
- in vivo toxicity (SARS-CoV-2 [9]): toxic
- in vitro SARS-CoV-2 inhibitory effects (SARS-CoV-2 [10]): sub-nanomolar

SMILES: COc1ccc(CCN2CCN(CCCc3ccccc3)CC2)cc1OC [SA4503, cutamesine, reference compound]
- Cytotoxicity EC50 (inhibition of SARS-CoV-2-induced cytotoxicity) (SARS-CoV-2 [8]; LDH release): 110.5 µg/mL
- EC50 (SARS-CoV-2 [8]; read-out: EC50 for inhibition of SARS-CoV-2 induced cytotoxicity, LDH release): 300 µM
- Cytotoxicity CC50 (Vero E6 cells): 198.7 µg/mL
- reduction of cytopathic effects (CPE) by microscopy (SARS-CoV-2 [3]): unable to visibly reduce CPE
- preference for sigma-1 over sigma-2 (sigma-1 over sigma-2): > 15 fold
- viral replication reduced by (qPCR) (SARS-CoV-2 [6]): 56.2%

SMILES: CN(C)CCOC(c1ccccc1)c1ccccc1 [diphenhydramine, reference compound]
- decrease of SARS-CoV-2 concentration (TCID50) (SARS-CoV-2 [5]; 40 μg/ml): ~2 log
- reduction of N-protein RNA copies (qPCR) (SARS-CoV-2 [6]): 32.2%
- EC50 (SARS-CoV-2 [7]; [13]): 122 µg/mL
- EC50 (SARS-CoV-2 [7]; [14]): 418 µM

SMILES: CCC(CC)COC(=O)[C@H](C)N[P@](=O)(OC[C@H]1O[C@@](C#N)(c2ccc3c(N)ncnn23)[C@H](O)[C@@H]1O)Oc1ccccc1 [remdesivir]
- reported SI (CC50/EC50) (SARS-CoV-2 [11]): > 4.96
